What was measured:
Format in all cases: functional
[1] = Cytotoxicity against human HCT116 cells assessed as growth inhibition at 100 uM after 2 days by MTT assay; conditions: HCT-116, 48 h, read-out: GI
[2] = Cytotoxicity against human HCT116 cells assessed as growth inhibition at 10 uM after 2 days by MTT assay; conditions: HCT-116, 48 h, read-out: GI
[3] = Cytotoxicity against human SKBR3 cells assessed as growth inhibition at 100 uM after 2 days by MTT assay; conditions: SK-BR-3, 48 h, read-out: GI
[4] = Cytotoxicity against human SKBR3 cells assessed as growth inhibition at 10 uM after 2 days by MTT assay; conditions: SK-BR-3, 48 h, read-out: GI
[5] = tested on: CCRF-CEM; test: Antiproliferative activity against human CCRF-CEM cells assessed as cell growth at 10^-5 M after 48 hrs by sulforhodamine B assay; conditions: read-out: Activity
[6] = Antiproliferative activity against human HL-60(TB) cells assessed as cell growth at 10^-5 M after 48 hrs by sulforhodamine B assay; conditions: HL-60, 48 h, read-out: Activity
[7] = tested on: K562; test: Antiproliferative activity against human K562 cells assessed as cell growth at 10^-5 M after 48 hrs by sulforhodamine B assay; conditions: K562, 48 h, read-out: Activity
[8] = tested on: SR; test: Antiproliferative activity against human SR cells assessed as cell growth at 10^-5 M after 48 hrs by sulforhodamine B assay; conditions: read-out: Activity
[9] = Antiproliferative activity against human HOP92 cells assessed as cell growth at 10^-5 M after 48 hrs by sulforhodamine B assay; conditions: HOP-92, 48 h, read-out: Activity
[10] = tested on: NCI-H322M; test: Antiproliferative activity against human NCI-H322M cells assessed as cell growth at 10^-5 M after 48 hrs by sulforhodamine B assay; conditions: read-out: Activity
[11] = tested on: NCI-H460; test: Antiproliferative activity against human NCI-H460 cells assessed as cell growth at 10^-5 M after 48 hrs by sulforhodamine B assay; conditions: NCI-H460, 48 h, read-out: Activity
[12] = tested on: NCI-H522; test: Antiproliferative activity against human NCI-H522 cells assessed as cell growth at 10^-5 M after 48 hrs by sulforhodamine B assay; conditions: NCI-H522, 48 h, read-out: Activity
[13] = Antiproliferative activity against human COLO205 cells assessed as cell growth at 10^-5 M after 48 hrs by sulforhodamine B assay; conditions: COLO 205, 48 h, read-out: Activity
[14] = Antiproliferative activity against human HCC2998 cells assessed as cell growth at 10^-5 M after 48 hrs by sulforhodamine B assay; conditions: HCC 2998, 48 h, read-out: Activity
[15] = Antiproliferative activity against human HCT15 cells assessed as cell growth at 10^-5 M after 48 hrs by sulforhodamine B assay; conditions: HCT-15, 48 h, read-out: Activity
[16] = Antiproliferative activity against human SW620 cells assessed as cell growth at 10^-5 M after 48 hrs by sulforhodamine B assay; conditions: SW-620, 48 h, read-out: Activity
[17] = Antiproliferative activity against human SF295 cells assessed as cell growth at 10^-5 M after 48 hrs by sulforhodamine B assay; conditions: SF-295, 48 h, read-out: Activity
[18] = Antiproliferative activity against human SNB19 cells assessed as cell growth at 10^-5 M after 48 hrs by sulforhodamine B assay; conditions: SNB-19, 48 h, read-out: Activity
[19] = Antiproliferative activity against human SNB75 cells assessed as cell growth at 10^-5 M after 48 hrs by sulforhodamine B assay; conditions: SNB-75, 48 h, read-out: Activity
[20] = tested on: U-251; test: Antiproliferative activity against human U251 cells assessed as cell growth at 10^-5 M after 48 hrs by sulforhodamine B assay; conditions: U-251, 48 h, read-out: Activity
[21] = tested on: SK-MEL-2; test: Antiproliferative activity against human SK-MEL-2 cells assessed as cell growth at 10^-5 M after 48 hrs by sulforhodamine B assay; conditions: SK-MEL-2, 48 h, read-out: Activity
[22] = tested on: SK-MEL-28; test: Antiproliferative activity against human SK-MEL-28 cells assessed as cell growth at 10^-5 M after 48 hrs by sulforhodamine B assay; conditions: SK-MEL-28, 48 h, read-out: Activity
[23] = tested on: SK-MEL-5; test: Antiproliferative activity against human SK-MEL-5 cells assessed as cell growth at 10^-5 M after 48 hrs by sulforhodamine B assay; conditions: SK-MEL-5, 48 h, read-out: Activity
[24] = Antiproliferative activity against human IGROV1 cells assessed as cell growth at 10^-5 M after 48 hrs by sulforhodamine B assay; conditions: IGROV-1, 48 h, read-out: Activity
[25] = Antiproliferative activity against human OVCAR3 cells assessed as cell growth at 10^-5 M after 48 hrs by sulforhodamine B assay; conditions: OVCAR-3, 48 h, read-out: Activity
[26] = Antiproliferative activity against human OVCAR5 cells assessed as cell growth at 10^-5 M after 48 hrs by sulforhodamine B assay; conditions: OVCAR-5, 48 h, read-out: Activity
[27] = Antiproliferative activity against human OVCAR8 cells assessed as cell growth at 10^-5 M after 48 hrs by sulforhodamine B assay; conditions: OVCAR-8, 48 h, read-out: Activity
[28] = Antiproliferative activity against human NCI-ADR-RES cells assessed as cell growth at 10^-5 M after 48 hrs by sulforhodamine B assay; conditions: read-out: Activity
[29] = Antiproliferative activity against human Caki1 cells assessed as cell growth at 10^-5 M after 48 hrs by sulforhodamine B assay; conditions: CAKI-1, 48 h, read-out: Activity
[30] = tested on: SN12C; test: Antiproliferative activity against human SN12C cells assessed as cell growth at 10^-5 M after 48 hrs by sulforhodamine B assay; conditions: read-out: Activity
[31] = Antiproliferative activity against human TK10 cells assessed as cell growth at 10^-5 M after 48 hrs by sulforhodamine B assay; conditions: TK-10, 48 h, read-out: Activity
[32] = Antiproliferative activity against human PC3 cells assessed as cell growth at 10^-5 M after 48 hrs by sulforhodamine B assay; conditions: PC-3, 48 h, read-out: Activity
[33] = Antiproliferative activity against human DU145 cells assessed as cell growth at 10^-5 M after 48 hrs by sulforhodamine B assay; conditions: DU-145, 48 h, read-out: Activity
[34] = tested on: MCF7; test: Antiproliferative activity against human MCF7 cells assessed as cell growth at 10^-5 M after 48 hrs by sulforhodamine B assay; conditions: MCF7, 48 h, read-out: Activity
[35] = Antiproliferative activity against human Hs 578T cells assessed as cell growth at 10^-5 M after 48 hrs by sulforhodamine B assay; conditions: read-out: Activity
[36] = tested on: T47D; test: Antiproliferative activity against human T47D cells assessed as cell growth at 10^-5 M after 48 hrs by sulforhodamine B assay; conditions: read-out: Activity
[37] = Antiproliferative activity against human SKOV3 cells assessed as cell growth at 10^-5 M after 48 hrs by sulforhodamine B assay; conditions: SK-OV-3, 48 h, read-out: Activity

| SMILES | inhibition of growth at 100 µM [1] [%] | inhibition of growth at 10 µM [2] [%] | inhibition of growth at 100 µM [3] [%] | inhibition of growth at 10 µM [4] [%] | growth at 10 µM [5] [%] | growth at 10 µM [6] [%] | growth at 10 µM [7] [%] | growth at 10 µM [8] [%] | growth at 10 µM [10] [%] | growth at 10 µM [11] [%] | growth at 10 µM [12] [%] | growth at 10 µM [13] [%] | growth at 10 µM [14] [%] | growth at 10 µM [15] [%] | growth at 10 µM [16] [%] | growth at 10 µM [17] [%] | growth at 10 µM [19] [%] | growth at 10 µM [20] [%] | growth at 10 µM [21] [%] | growth at 10 µM [22] [%] | further results |
| --- | --- | --- | --- | --- | --- | --- | --- | --- | --- | --- | --- | --- | --- | --- | --- | --- | --- | --- | --- | --- | --- |
| CNC(=O)c1cc(Oc2ccc3nc(NC(=O)c4ccc5ncccc5c4)sc3c2)ccn1 | 72.3 | 22.5 | 29.6 | 17.1 | 91 | 87.5 | 93.7 | 88.8 | 99 | 98.6 | 54.3 | 95.8 | 106 | 91.1 | 112 | 86.9 | 86.5 | 93.6 | 86.2 | 101 | growth at 10 µM [9]: 110%; growth at 10 µM [18]: 95.1%; growth at 10 µM [23]: 86.4%; growth at 10 µM [24]: 93.3%; growth at 10 µM [25]: 98.9%; growth at 10 µM [26]: 106%; growth at 10 µM [27]: 100%; growth at 10 µM [28]: 88.8%; growth at 10 µM [29]: 89.9%; growth at 10 µM [30]: 92.6%; growth at 10 µM [31]: 90.5%; growth at 10 µM [32]: 93.2%; growth at 10 µM [33]: 105%; growth at 10 µM [34]: 88%; growth at 10 µM [35]: 108%; growth at 10 µM [36]: 51.3% |
| CNC(=O)c1cc(Oc2ccc3nc(NC(=O)Nc4ccc(Cl)c(C(F)(F)F)c4)sc3c2)ccn1 | 94.4 | 82.8 | 94.5 | 79.6 | 22 | 52 | 32 | -1 | -14 | -57 | 6 | -11 | 20 | -9 | 4 | -68 | -75 | -66 | 37 | -68 | growth at 10 µM [9]: -54%; growth at 10 µM [23]: -62%; growth at 10 µM [24]: -36%; growth at 10 µM [25]: -70%; growth at 10 µM [26]: -13%; growth at 10 µM [27]: -40%; growth at 10 µM [28]: -21%; growth at 10 µM [37]: -54%; growth at 10 µM [29]: -16%; growth at 10 µM [30]: 1%; growth at 10 µM [31]: -55%; growth at 10 µM [32]: -67%; growth at 10 µM [33]: -10%; growth at 10 µM [34]: -3%; growth at 10 µM [35]: -17%; growth at 10 µM [36]: -34% |
| CNC(=O)c1cc(Oc2ccc(NC(=O)Nc3ccc(Cl)c(C(F)(F)F)c3)cc2)ccn1 [SORAFENIB] | 97.3 | 48.4 | 93.1 | 48.9 |  |  |  |  |  |  |  |  |  |  |  |  |  |  |  |  |  |
| CNC(=O)c1cc(Oc2ccc3nc(NC(=O)c4ccc(Cl)c(C(F)(F)F)c4)sc3c2)ccn1 | 92.3 | 30.2 | 86.5 | 6.26 | 68.4 | 89.4 | 69.9 | 37.6 | 87.4 | 56.4 | 57.3 | 80.4 | 74.8 | 85 | 92.4 | 78.3 | 39 | 59.2 | 96.5 | 83 | growth at 10 µM [23]: 70.9%; growth at 10 µM [24]: 85.8%; growth at 10 µM [25]: 66.4%; growth at 10 µM [26]: 93.3%; growth at 10 µM [27]: 57.2%; growth at 10 µM [28]: 64.9%; growth at 10 µM [37]: 85.3%; growth at 10 µM [29]: 95.2%; growth at 10 µM [30]: 75.6%; growth at 10 µM [31]: 92.8%; growth at 10 µM [32]: 62.7%; growth at 10 µM [33]: 73%; growth at 10 µM [34]: 64.1%; growth at 10 µM [35]: 66.2%; growth at 10 µM [36]: 64.8% |

From ChEMBL document CHEMBL3797052 (Eur J Med Chem, 2016)
